ChEMBL document CHEMBL5055685, “Discovery of the First Potent IDO1/IDO2 Dual Inhibitors: A Promising Strategy for Cancer Immunotherapy” (J Med Chem, 2021)
Calls of active or inactive are those of the source. The rule behind the calls is not given here.

How the values were obtained:
[1] = target: Tyrosine-protein kinase Srms (Homo sapiens) (UniProt Q9H3Y6); experiment: Inhibition of SRMS (unknown origin) at 1 uM
[2] = target: CDK18/Cyclin Y (Homo sapiens) (UniProt Q07002+Q8ND76); experiment: Inhibition of CDK18/cyclin-Y (unknown origin) at 1 uM; type: protein-complex assay
[3] = target: Fibroblast growth factor receptor 4 (Homo sapiens) (UniProt P22455); experiment: Inhibition of FGFR4 (unknown origin) at 1 uM
[4] = target: Maternal embryonic leucine zipper kinase (Homo sapiens) (UniProt Q14680); experiment: Inhibition of MELK (unknown origin) at 1 uM
Maternal embryonic leucine zipper kinase (Homo sapiens), sequence (Q14680 whole entry, looked up): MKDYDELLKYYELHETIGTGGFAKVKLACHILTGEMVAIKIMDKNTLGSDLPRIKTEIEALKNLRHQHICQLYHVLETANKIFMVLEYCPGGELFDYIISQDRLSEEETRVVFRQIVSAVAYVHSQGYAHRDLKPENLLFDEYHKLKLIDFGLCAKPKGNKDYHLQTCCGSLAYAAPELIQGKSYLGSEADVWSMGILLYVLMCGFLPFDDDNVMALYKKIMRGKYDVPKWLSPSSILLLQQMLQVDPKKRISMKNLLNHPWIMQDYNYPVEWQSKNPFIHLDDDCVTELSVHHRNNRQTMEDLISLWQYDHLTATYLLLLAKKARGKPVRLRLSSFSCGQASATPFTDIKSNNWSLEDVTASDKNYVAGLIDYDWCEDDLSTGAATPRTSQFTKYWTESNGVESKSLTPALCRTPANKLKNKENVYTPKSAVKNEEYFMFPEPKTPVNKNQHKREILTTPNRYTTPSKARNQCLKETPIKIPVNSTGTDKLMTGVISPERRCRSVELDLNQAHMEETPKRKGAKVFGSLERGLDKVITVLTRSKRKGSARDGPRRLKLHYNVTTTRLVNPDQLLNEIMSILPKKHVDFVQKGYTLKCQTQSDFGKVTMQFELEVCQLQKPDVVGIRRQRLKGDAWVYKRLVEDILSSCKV

[5] = target: SRSF protein kinase 2 (Homo sapiens) (UniProt P78362); experiment: Inhibition of SRPK2 (unknown origin) at 1 uM
SRSF protein kinase 2 (Homo sapiens), sequence (P78362 whole entry, looked up): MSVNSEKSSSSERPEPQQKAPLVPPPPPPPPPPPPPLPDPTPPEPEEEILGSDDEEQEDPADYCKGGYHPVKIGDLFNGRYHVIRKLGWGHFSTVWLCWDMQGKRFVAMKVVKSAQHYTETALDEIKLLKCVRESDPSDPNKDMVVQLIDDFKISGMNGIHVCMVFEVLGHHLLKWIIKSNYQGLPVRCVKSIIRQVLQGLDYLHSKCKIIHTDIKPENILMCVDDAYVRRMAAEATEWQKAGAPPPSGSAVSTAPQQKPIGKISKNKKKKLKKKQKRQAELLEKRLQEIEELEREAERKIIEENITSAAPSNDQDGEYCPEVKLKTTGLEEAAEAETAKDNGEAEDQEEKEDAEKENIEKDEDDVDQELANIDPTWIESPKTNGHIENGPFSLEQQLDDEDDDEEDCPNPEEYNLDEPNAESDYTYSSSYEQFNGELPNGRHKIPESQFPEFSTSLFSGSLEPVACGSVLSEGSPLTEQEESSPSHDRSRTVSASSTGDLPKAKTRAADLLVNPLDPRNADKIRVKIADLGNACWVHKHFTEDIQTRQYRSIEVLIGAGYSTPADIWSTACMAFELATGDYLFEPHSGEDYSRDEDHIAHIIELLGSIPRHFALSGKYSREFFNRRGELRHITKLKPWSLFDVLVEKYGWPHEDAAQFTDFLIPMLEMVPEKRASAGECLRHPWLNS

[6] = target: Tyrosine-protein kinase Fyn (Homo sapiens) (UniProt P06241); experiment: Inhibition of FYN (unknown origin) at 1 uM
[7] = target: Serine/threonine-protein kinase Sgk3 (Homo sapiens) (UniProt Q96BR1); experiment: Inhibition of SGK3 (unknown origin) at 1 uM
Serine/threonine-protein kinase Sgk3 (Homo sapiens), sequence (Q96BR1 whole entry): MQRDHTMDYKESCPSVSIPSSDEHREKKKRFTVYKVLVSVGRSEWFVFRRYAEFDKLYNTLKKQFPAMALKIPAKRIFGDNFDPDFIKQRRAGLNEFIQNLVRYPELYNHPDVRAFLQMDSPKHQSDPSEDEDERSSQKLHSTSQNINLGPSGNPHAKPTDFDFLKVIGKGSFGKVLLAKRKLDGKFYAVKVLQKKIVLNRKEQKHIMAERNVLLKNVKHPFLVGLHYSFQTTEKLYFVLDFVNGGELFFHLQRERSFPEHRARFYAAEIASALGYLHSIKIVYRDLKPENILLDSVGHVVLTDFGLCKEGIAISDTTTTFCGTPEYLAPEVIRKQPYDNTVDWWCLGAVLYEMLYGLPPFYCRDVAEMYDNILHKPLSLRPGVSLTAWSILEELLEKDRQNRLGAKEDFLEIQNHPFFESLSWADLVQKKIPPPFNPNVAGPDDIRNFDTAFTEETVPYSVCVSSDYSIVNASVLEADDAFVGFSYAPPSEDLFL

[8] = target: Vascular endothelial growth factor receptor 3 (Homo sapiens) (UniProt P35916); experiment: Inhibition of FLT4 (unknown origin) at 1 uM
[9] = target: Serine/threonine-protein kinase Nek9 (Homo sapiens) (UniProt Q8TD19); experiment: Inhibition of NEK9 (unknown origin) at 1 uM
[10] = target: Aryl hydrocarbon receptor (Homo sapiens, UniProt P35869); experiment: Activation of AhR (unknown origin) assessed as effect on CYP1A1 mRNA expression measured after 24 hrs by quantitative RT-PCR analysis; type: ADME
[11] = target: Receptor tyrosine-protein kinase erbB-4 (Homo sapiens) (UniProt Q15303); experiment: Inhibition of ERBB4 (unknown origin) at 1 uM
[12] = target: Serine/threonine-protein kinase Nek8 (Homo sapiens) (UniProt Q86SG6); experiment: Inhibition of NEK8 (unknown origin) at 1 uM
[13] = Metabolic stability in dog liver microsomes assessed as rate constant; type: ADME, Canis lupus familiaris, Microsome
[14] = target: Tyrosine-protein kinase receptor TYRO3 (Homo sapiens) (UniProt Q06418); experiment: Inhibition of TYRO3 (unknown origin) at 1 uM
[15] = Protein binding in Sprague-Dawley rat plasma assessed as fraction unbound by equilibrium dialysis; type: ADME, cell-free
[16] = target: MAP kinase-interacting serine/threonine-protein kinase 2 (Homo sapiens) (UniProt Q9HBH9); experiment: Inhibition of MNK2 (unknown origin) at 1 uM
[17] = target: Casein kinase I isoform delta (Homo sapiens) (UniProt P48730); experiment: Inhibition of CK1D (unknown origin) at 1 uM
HCT-116 [18] = experiment: Antitumor immunity in BALB/c mouse xenografted with human HCT-116 cells assessed as increase in CD80 expression in CD11c+ cells by propidium iodide staining based flow cytometry analysis (reference value: 79.8 %); type: functional
[19] = target: Mitogen-activated protein kinase 12 (Homo sapiens) (UniProt P53778); experiment: Inhibition of p38gamma (unknown origin) at 1 uM
Rattus norvegicus = experiment: Toxicity in rat assessed as weight loss at […]; type: organism-based; details: in vivo
[20] = target: Serine/threonine-protein kinase Nek1 (Homo sapiens) (UniProt Q96PY6); experiment: Inhibition of NEK1 (unknown origin) at 1 uM
[21] = target: Serine/threonine-protein kinase MRCK beta (Homo sapiens) (UniProt Q9Y5S2); experiment: Inhibition of MRCKbeta (unknown origin) at 1 uM
[22] = target: Serine/threonine-protein kinase haspin (Homo sapiens) (UniProt Q8TF76); experiment: Inhibition of haspin (unknown origin) at 1 uM
[23] = target: Mitogen-activated protein kinase kinase kinase 19 (Homo sapiens) (UniProt Q56UN5); experiment: Inhibition of YSK4 (unknown origin) at 1 uM
Mitogen-activated protein kinase kinase kinase 19 (Homo sapiens), sequence (Q56UN5 whole entry): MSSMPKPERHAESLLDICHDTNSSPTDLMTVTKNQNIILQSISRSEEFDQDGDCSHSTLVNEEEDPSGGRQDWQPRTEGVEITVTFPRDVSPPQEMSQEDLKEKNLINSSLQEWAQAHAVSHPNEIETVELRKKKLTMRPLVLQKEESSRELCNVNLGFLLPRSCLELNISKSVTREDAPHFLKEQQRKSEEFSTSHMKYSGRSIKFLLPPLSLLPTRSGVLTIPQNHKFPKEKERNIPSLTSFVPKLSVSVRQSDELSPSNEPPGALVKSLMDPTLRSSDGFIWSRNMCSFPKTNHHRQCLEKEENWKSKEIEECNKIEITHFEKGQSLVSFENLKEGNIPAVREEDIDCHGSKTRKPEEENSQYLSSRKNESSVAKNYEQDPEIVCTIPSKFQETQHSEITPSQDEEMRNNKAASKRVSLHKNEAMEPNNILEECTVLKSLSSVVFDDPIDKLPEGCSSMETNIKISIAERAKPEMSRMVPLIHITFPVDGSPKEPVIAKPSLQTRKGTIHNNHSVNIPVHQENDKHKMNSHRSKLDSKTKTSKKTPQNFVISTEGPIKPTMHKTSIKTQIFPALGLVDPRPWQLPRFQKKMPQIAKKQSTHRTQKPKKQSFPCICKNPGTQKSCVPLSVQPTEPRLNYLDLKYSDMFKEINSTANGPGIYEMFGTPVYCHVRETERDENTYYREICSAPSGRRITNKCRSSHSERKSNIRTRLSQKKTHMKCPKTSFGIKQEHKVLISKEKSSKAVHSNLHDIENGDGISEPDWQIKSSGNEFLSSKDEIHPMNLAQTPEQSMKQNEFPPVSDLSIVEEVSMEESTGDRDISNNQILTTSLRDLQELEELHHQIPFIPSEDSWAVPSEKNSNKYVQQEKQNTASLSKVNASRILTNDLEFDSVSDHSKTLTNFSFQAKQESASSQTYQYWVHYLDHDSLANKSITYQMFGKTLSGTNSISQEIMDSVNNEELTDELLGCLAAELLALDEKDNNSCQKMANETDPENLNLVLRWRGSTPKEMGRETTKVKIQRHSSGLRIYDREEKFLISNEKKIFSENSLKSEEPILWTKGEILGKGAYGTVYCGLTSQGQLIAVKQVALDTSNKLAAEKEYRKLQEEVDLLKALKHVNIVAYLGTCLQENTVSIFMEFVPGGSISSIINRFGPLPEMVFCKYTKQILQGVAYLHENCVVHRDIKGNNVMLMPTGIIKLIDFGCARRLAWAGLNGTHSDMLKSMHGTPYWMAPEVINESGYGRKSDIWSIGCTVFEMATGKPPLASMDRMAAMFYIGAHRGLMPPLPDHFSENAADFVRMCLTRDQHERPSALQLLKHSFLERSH

[24] = target: Kinase suppressor of Ras 1 (Homo sapiens) (UniProt Q8IVT5); experiment: Inhibition of KSR1 (unknown origin) at 1 uM
Kinase suppressor of Ras 1 (Homo sapiens), sequence (Q8IVT5 whole entry): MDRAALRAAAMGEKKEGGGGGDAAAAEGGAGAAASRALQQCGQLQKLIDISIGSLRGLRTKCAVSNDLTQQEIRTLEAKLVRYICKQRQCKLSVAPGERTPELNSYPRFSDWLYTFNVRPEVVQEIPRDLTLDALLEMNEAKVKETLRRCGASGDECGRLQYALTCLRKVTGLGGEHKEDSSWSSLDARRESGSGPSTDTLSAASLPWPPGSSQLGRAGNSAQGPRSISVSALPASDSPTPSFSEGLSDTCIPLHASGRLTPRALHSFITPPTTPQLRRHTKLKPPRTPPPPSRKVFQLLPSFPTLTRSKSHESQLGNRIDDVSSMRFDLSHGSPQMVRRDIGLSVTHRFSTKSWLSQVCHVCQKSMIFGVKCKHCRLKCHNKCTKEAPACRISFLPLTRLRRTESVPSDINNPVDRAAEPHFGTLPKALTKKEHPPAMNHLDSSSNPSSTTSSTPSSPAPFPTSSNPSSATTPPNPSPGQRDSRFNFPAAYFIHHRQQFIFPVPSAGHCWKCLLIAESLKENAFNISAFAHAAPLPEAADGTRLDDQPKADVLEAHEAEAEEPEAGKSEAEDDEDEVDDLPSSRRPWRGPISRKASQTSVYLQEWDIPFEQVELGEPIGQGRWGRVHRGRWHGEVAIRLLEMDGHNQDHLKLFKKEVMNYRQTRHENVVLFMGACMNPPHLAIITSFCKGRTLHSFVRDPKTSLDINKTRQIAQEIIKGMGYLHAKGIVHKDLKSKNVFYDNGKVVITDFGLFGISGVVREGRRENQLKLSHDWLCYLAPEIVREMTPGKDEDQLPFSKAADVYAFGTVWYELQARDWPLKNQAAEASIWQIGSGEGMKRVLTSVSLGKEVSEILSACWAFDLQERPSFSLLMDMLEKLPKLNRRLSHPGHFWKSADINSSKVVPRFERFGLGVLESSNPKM

[25] = target: Non-receptor tyrosine-protein kinase TYK2 (Homo sapiens) (UniProt P29597); experiment: Inhibition of TYK2 (unknown origin) at 1 uM
[26] = target: Protein kinase C alpha type (Homo sapiens) (UniProt P17252); experiment: Inhibition of PKCalpha (unknown origin)at 1 uM
HCT-116 [27] = experiment: Antitumor immunity in BALB/c mouse xenografted with human HCT-116 cells assessed as live Treg cells in tumor-draining lymph nodes by propidium iodide staining based flow cytometry analysis (reference value: 70.6 %); type: functional
[28] = target: Mitogen-activated protein kinase kinase kinase kinase 2 (Homo sapiens) (UniProt Q12851); experiment: Inhibition of GCK (unknown origin) at 1 uM
[29] = target: Tyrosine-protein kinase Fer (Homo sapiens) (UniProt P16591); experiment: Inhibition of FER (unknown origin) at 1 uM
[30] = target: Protein kinase C theta type (Homo sapiens) (UniProt Q04759); experiment: Inhibition of PKCtheta (unknown origin) at 1 uM
HCT-116 [31] = experiment: Antitumor immunity in BALB/c mouse xenografted with human HCT-116 cells assessed as necrotic Treg cells in tumor-draining lymph nodes by propidium iodide staining based flow cytometry analysis (reference value: 3.91 %); type: functional
[32] = target: Casein kinase II subunit alpha (Homo sapiens) (UniProt P68400); experiment: Inhibition of CK2A (unknown origin) at 1 uM
[33] = target: cAMP-dependent protein kinase catalytic subunit gamma (Homo sapiens) (UniProt P22612); experiment: Inhibition of PKAcg (unknown origin) at 1 uM
[34] = target: Non-receptor tyrosine-protein kinase TNK1 (Homo sapiens) (UniProt Q13470); experiment: Inhibition of TNK1 (unknown origin) at 1 uM
Non-receptor tyrosine-protein kinase TNK1 (Homo sapiens), sequence (Q13470 whole entry): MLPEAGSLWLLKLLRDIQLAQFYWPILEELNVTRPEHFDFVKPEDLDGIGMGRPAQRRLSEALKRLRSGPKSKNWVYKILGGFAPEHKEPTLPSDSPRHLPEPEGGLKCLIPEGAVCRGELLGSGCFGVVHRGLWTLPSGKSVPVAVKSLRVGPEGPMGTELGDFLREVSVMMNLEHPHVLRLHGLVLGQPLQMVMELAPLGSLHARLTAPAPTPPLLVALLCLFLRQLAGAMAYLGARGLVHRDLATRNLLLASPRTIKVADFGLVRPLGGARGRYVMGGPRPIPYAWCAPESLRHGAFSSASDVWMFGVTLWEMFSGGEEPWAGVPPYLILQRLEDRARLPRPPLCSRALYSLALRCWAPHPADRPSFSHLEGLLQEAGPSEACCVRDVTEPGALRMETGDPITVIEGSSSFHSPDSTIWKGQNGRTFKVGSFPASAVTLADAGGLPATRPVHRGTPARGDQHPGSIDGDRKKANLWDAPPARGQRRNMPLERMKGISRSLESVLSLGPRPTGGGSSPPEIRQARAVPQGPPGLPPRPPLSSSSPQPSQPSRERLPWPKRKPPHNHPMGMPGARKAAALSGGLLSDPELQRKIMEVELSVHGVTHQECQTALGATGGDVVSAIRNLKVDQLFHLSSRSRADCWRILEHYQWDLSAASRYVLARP

[35] = target: Serine/threonine-protein kinase MARK1 (Homo sapiens) (UniProt Q9P0L2); experiment: Inhibition of MARK1 (unknown origin) at 1 uM
[36] = target: Vascular endothelial growth factor receptor 1 (Homo sapiens) (UniProt P17948); experiment: Inhibition of FLT1 (unknown origin) at 1 uM
[37] = target: Serine/threonine-protein kinase PAK 1 (Homo sapiens) (UniProt Q13153); experiment: Inhibition of PAK1 (unknown origin) at 1 uM
[38] = target: Casein kinase II subunit alpha' (Homo sapiens) (UniProt P19784); experiment: Inhibition of CK2A2 (unknown origin) at 1 uM
[39] = target: Receptor-interacting serine/threonine-protein kinase 3 (Homo sapiens) (UniProt Q9Y572); experiment: Inhibition of RIPK3 (unknown origin) at 1 uM
[40] = target: Ephrin type-B receptor 4 (Homo sapiens) (UniProt P54760); experiment: Inhibition of EPHB4 (unknown origin) at 1 uM
[41] = target: Protein kinase C eta type (Homo sapiens) (UniProt P24723); experiment: Inhibition of PKCeta (unknown origin)at 1 uM
[42] = target: Muscle, skeletal receptor tyrosine-protein kinase (Homo sapiens) (UniProt O15146); experiment: Inhibition of MUSK (unknown origin) at 1 uM

OCCOCc1cn(CCNc2nonc2/C(=N/O)Nc2ccc(F)c(Br)c2)nn1
inhibition [1]: inactive | inhibition [2]: inactive | inhibition [3]: inactive | inhibition [4]: inactive | inhibition [5]: inactive | inhibition [6]: inactive | inhibition [7]: inactive | inhibition [8]: inactive | inhibition [9]: inactive | Activity [10]: Not Active | inhibition [11]: inactive | inhibition [12]: inactive | k el [13]: 0.00205 s⁻¹ | inhibition [14]: inactive | fraction unbound [15]: 0.0672 | inhibition [16]: inactive | inhibition [17]: inactive | Activity (HCT-116 [18]): 75.8% | inhibition [19]: inactive | Activity (Rattus norvegicus): Non-Toxic | inhibition [20]: inactive | inhibition [21]: inactive | inhibition [22]: inactive | inhibition [23]: inactive | inhibition [24]: inactive | inhibition [25]: inactive | inhibition [26]: inactive | Activity (HCT-116 [27]): 88.1% | inhibition [28]: inactive | inhibition [29]: inactive | inhibition [30]: inactive | Activity (HCT-116 [31]): 0.73% | inhibition [32]: inactive | inhibition [33]: inactive | inhibition [34]: inactive | inhibition [35]: inactive | inhibition [36]: inactive | inhibition [37]: inactive | inhibition [38]: inactive | inhibition [39]: inactive | inhibition [40]: inactive | inhibition [41]: inactive | inhibition [42]: inactive
